We go through three compounds from US20100093662A1, “NOVEL AMPHIPHILIC CYCLODEXTRIN DERIVATIVES” (CENTRE NATIONAL DE LA RECHERCHE SCIENTIFIQUE-CNRS-, priority 2006, published 2010).

The data set in a line: Size and polydispersion of white homogenous nanospheres (quasi-elastic diffusion of light), physical stability over time. It counts as physicochemical. The protocol:
The method used to prepare white homogenous nanospheres consists in introducing an organic phase of acetone (or tetrahydrofurane) and an amphiphilic cyclodextrin derivative from the invention (1 mg·mL^−1) in an aqueous phase of equivalent volume or a double volume (distilled water), under magnetic stirring (500 r.p.m.) at 25° C. After nanoprecipitation, the organic solvent is eliminated under reduced pressure at +35° C. The aqueous suspension presenting an opalescent to milky appearance (according to the products used) is then concentrated until the final volume desired is obtained, then filtered on a 0.8 μm filter (Millex AA, Millipore, France).
The colloid suspensions are then characterised as regards the granulometry (mean size and polydisperion) and, when they incorporate loaded amphiphilic cyclodextrins, by their zeta potential. The characterisation is carried out using the following methods:
The quasi-elastic diffusion of light is used. A Zetasizer 3000 apparatus equipped with a K7132 correlator (Malvern Instruments, RU) was used. The conditions for measurement are as follows: angle of detection 90°, temperature 25±0.1° C., apparent viscosity 0.89 mPa·s. Before measuring the size, samples are diluted in distilled water if necessary. The hydrodynamic diameter (mean Z) and polydispersion index (PI) of the nanoparticles in suspension are calculated in intensity by the cumulant method by carrying out 3 measurements on the same sample. The value of the hydrodynamic diameter is calculated using the measurement of the translational coefficient of diffusion of particles with Brownian movement. An NanoZS apparatus (Malvern Instruments) was also used to measure the size of the nanocapsules. In the same way, the samples are diluted before measurement, if necessary in water added to Montanox 80 (trade mark).
The studies on the physical stability of particles were carried out over periods ranging from 1 month to 8 months. The corresponding data for a series of amphiphilic cyclodextrins in the invention are indicated in Table 1 providing the granulometric characteristics (mean size and polydispersion index or mean PI), with evolution over time, of different homogenous nanospheres derived from the compounds indicated in the left column, the reference number for said compounds corresponding to those of the compounds described in the above examples.

As to `CCCCCC(=O)O[C@@H]1[C@@H](OC(=O)CCCCC)[C@H]2O[C@H]3[C@H](OC(=O)CCCCC)[C@@H](OC(=O)CCCCC)[C@@H](O[C@H]4[C@H](OC(=O)CCCCC)[C@@H](OC(=O)CCCCC)[C@@H](O[C@H]5[C@H](OC(=O)CCCCC)[C@@H](OC(=O)CCCCC)[C@@H](O[C@H]6[C@H](OC(=O)CCCCC)[C@@H](OC(=O)CCCCC)[C@@H](O[C@H]7[C@H](OC(=O)CCCCC)[C@@H](OC(=O)CCCCC)[C@@H](O[C@H]8[C@H](OC(=O)CCCCC)[C@@H](OC(=O)CCCCC)[C@@H](O[C@@H]1[C@@H](CI)O2)O[C@@H]8CI)O[C@@H]7CI)O[C@@H]6CI)O[C@@H]5CI)O[C@@H]4CI)O[C@@H]3CI` [compound no. 1, heptakis(6-desoxy-2,3-di-0-hexanoyl-6-iodo) cyclomaltoheptaose], the “Mean size ± standard deviation (n = 3)” value is, setting by setting: (8 months) 236 ± 13 nm; (initial) 251 ± 62 nm. Besides, the “PI (polydispersion index)” value by setting is: (8 months) 0.03; (initial) 0.08.

In the case of `CCCCCC(=O)O[C@@H]1[C@@H](OC(=O)CCCCC)[C@H]2O[C@H]3[C@H](OC(=O)CCCCC)[C@@H](OC(=O)CCCCC)[C@@H](O[C@H]4[C@H](OC(=O)CCCCC)[C@@H](OC(=O)CCCCC)[C@@H](O[C@H]5[C@H](OC(=O)CCCCC)[C@@H](OC(=O)CCCCC)[C@@H](O[C@H]6[C@H](OC(=O)CCCCC)[C@@H](OC(=O)CCCCC)[C@@H](O[C@H]7[C@H](OC(=O)CCCCC)[C@@H](OC(=O)CCCCC)[C@@H](O[C@H]8[C@H](OC(=O)CCCCC)[C@@H](OC(=O)CCCCC)[C@@H](O[C@@H]1[C@@H](CBr)O2)O[C@@H]8CBr)O[C@@H]7CBr)O[C@@H]6CBr)O[C@@H]5CBr)O[C@@H]4CBr)O[C@@H]3CBr` [compound no. 2, heptakis(6-bromo-6-desoxy-2,3-di-O-hexanoyl)cyclomaltoheptaose], under “8 months”, the “Mean size ± standard deviation (n = 3)” value is reported as 182 ± 22 nm and the “PI (polydispersion index)” value came out at 0.01. Moreover, where the note is “initial”, the “Mean size ± standard deviation (n = 3)” value was 238 ± 29 nm and the “PI (polydispersion index)” value was 0.02.

For the compound `CCCCCC(=O)O[C@@H]1[C@@H](OC(=O)CCCCC)[C@H]2O[C@H]3[C@H](OC(=O)CCCCC)[C@@H](OC(=O)CCCCC)[C@@H](O[C@H]4[C@H](OC(=O)CCCCC)[C@@H](OC(=O)CCCCC)[C@@H](O[C@H]5[C@H](OC(=O)CCCCC)[C@@H](OC(=O)CCCCC)[C@@H](O[C@H]6[C@H](OC(=O)CCCCC)[C@@H](OC(=O)CCCCC)[C@@H](O[C@H]7[C@H](OC(=O)CCCCC)[C@@H](OC(=O)CCCCC)[C@@H](O[C@H]8[C@H](OC(=O)CCCCC)[C@@H](OC(=O)CCCCC)[C@@H](O[C@@H]1[C@@H](CN=[N+]=[N-])O2)O[C@@H]8CN=[N+]=[N-])O[C@@H]7CN=[N+]=[N-])O[C@@H]6CN=[N+]=[N-])O[C@@H]5CN=[N+]=[N-])O[C@@H]4CN=[N+]=[N-])O[C@@H]3CN=[N+]=[N-]` [compound no. 3, heptakis(6-azido-6-desoxy-2,3-di-O-hexanoyl)cyclomaltoheptaose], the “IP (polydispersion index)” value is, setting by setting: (3 months) 0.06; (6 months) 0.18. The “Mean size ± standard deviation (n = 3)” value reads like this: (3 months) 157 ± 8 nm; (6 months) 206 ± 17 nm; (initial) 181 ± 5 nm. Besides, the “PI (polydispersion index)” value (initial) is 0.08.
